Several values for one entry are separate records, joined by “and”; a condition that tells them apart may be missing. Identical values can stand only once.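 Interpolation was linear, between the two tested concentrations surrounding the appropriate level; five concentrations were tested over 48 hours in 96-well plates. At the GI50, growth is halved. TGI: concentration producing complete growth inhibition.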
Tests used:
Assay in all cases: NCI anticancer screen, dose series, 48 h
HT29 colon = test system: HT29 colon
HS 578T breast = test system: HS 578T breast
DU-145 prostate = test system: DU-145 prostate
UACC-62 melanoma = test system: UACC-62 melanoma
M14 melanoma = test system: M14 melanoma
NCI-H226 lung = test system: NCI-H226 lung
NCI-H460 lung = test system: NCI-H460 lung
K-562 leukemia = test system: K-562 leukemia
HL-60(TB) leukemia = test system: HL-60(TB) leukemia
SK-MEL-5 melanoma = test system: SK-MEL-5 melanoma

Row | Compound | GI50 (HT29 colon) [µM] | TGI (HT29 colon) [µM] | GI50 (HS 578T breast) | TGI (HS 578T breast) | GI50 (DU-145 prostate) [µM] | TGI (DU-145 prostate) | GI50 (UACC-62 melanoma) | TGI (UACC-62 melanoma) [µM] | GI50 (M14 melanoma) | TGI (M14 melanoma) | GI50 (NCI-H226 lung) [µM] | TGI (NCI-H226 lung) | GI50 (NCI-H460 lung) [µM] | TGI (NCI-H460 lung) | GI50 (K-562 leukemia) [µM] | TGI (K-562 leukemia) [µM] | GI50 (HL-60(TB) leukemia) | TGI (HL-60(TB) leukemia) | GI50 (SK-MEL-5 melanoma) [µM] | TGI (SK-MEL-5 melanoma) [µM]
1 | COc1cc(C)c(N(C)C(=O)CN(C)C)cc1Nc1nc(Nc2cccc(F)c2C(N)=O)c2cc[nH]c2n1 | 1.37 | > 25 | > 17.5 µM | > 25 µM | > 25 | > 25 µM | > 25 µM | > 25 | > 25 µM | > 25 µM | > 24 | > 25 µM | > 23.2 | > 25 µM | 18.1 | > 25 | 3.2 µM | > 25 µM | 13.3 | > 25
2 | CO/N=C(\COc1ccc2c(=O)cc(-c3ccccc3)oc2c1)c1ccc(OC)cc1 | > 100 | > 100 | > 100 µM | > 100 µM | > 100 | > 100 µM | > 100 µM | > 100 | > 100 µM | > 100 µM | > 100 | > 100 µM |  |  | > 100 | > 100 | > 100 µM | > 100 µM | > 100 | > 100
3 | Cn1c(-c2c(N)n(Cc3ccc(Cl)cc3)c3nc(C#N)c(C#N)nc23)nc2ccccc21 |  |  | 4 µM | 24.5 µM | 5.94 | 17.4 µM | 2.26 µM | 9.71 | 10.6 µM | 42.6 µM |  |  | 2.7 | 25.7 µM | 17.3 | > 50 | 16.9 µM | > 50 µM | 5.24 | 16.5
4 | O=C(O)C1(C(=O)O)CCN(S(=O)(=O)c2ccccc2)CC1 |  | > 100 |  | > 100 µM |  | > 100 µM |  | > 100 |  | > 100 µM |  | > 100 µM |  | > 100 µM |  | > 100 |  | > 100 µM |  | > 100
5 | CN(C)c1ccc2c(SCC(=O)OCC(=O)[C@@]3(O)CC[C@H]4[C@@H]5CCC6=CC(=O)C=C[C@]6(C)[C@H]5C(=O)C[C@@]43C)c3ccc(N(C)C)cc3nc2c1 |  | 25.4 |  | > 100 µM |  | 58.2 µM |  | 54.6 |  | > 100 µM |  | 47.5 µM |  | > 45.7 µM |  | > 70.4 |  | > 20.5 µM |  | > 100
6 | CCOc1ccc2c(-c3ccnc(Nc4cccc(C(F)(F)F)c4)n3)cnn2n1 | 10.1 | > 25 | > 20.2 µM | > 25 µM | > 19.5 | > 25 µM | 11.5 µM | > 25 | > 25 µM | > 25 µM | > 25 | > 25 µM | 9.05 | > 25 µM | 15.9 | > 25 | > 25 µM | > 25 µM | > 25 | > 25
7 | CN1CCN(c2ccc3nc(-c4ccc5nc(-c6ccc(C(F)(F)F)cc6)[nH]c5c4)[nH]c3c2)CC1 | 1.41 | 3.13 | 2.03 µM | 4.49 µM | 1.76 | 3.25 µM | 1.58 µM | 3.05 | 1.36 µM | 2.89 µM | 9.59 | 29.9 µM | 1.9 | 3.55 µM |  |  | 1.47 µM | 3.45 µM | 3.36 | 15.5
8 | COc1ccc(CNCCCN2C(=O)c3ccc4c5c(ccc(c35)C2=O)C(=O)N(CCCNCCCCNCCCN)C4=O)c(OC)c1OC | 0.452 | 3.23 | 7.52 µM | 43.4 µM | 1.55 | 3.44 µM | 1.48 µM | 4.37 | 1.66 µM | 3.57 µM | 2.11 | 16.4 µM | 0.703 | 7.03 µM | 0.761 | 12.7 | 2.73 µM | 13.1 µM |  | 
9 | CCN(CC)CCNc1ccc(CO)c2sc3ccccc3c(=O)c12 |  |  | 4.26 µM and 9.64 µM | 24.8 µM and 26.8 µM | 2.99 | 9.87 µM and 27.6 µM | 1.94 µM and 11.3 µM |  | 1.99 µM and 12.4 µM and 2.03 µM | 4.2 µM and 25.1 µM and 4.3 µM | 1.74 | 4.48 µM and 44.8 µM and 26.1 µM | 3.44 | 11 µM and 15.1 µM and 12.2 µM |  |  | 8.47 µM [middle of 4 runs] | 24.5 µM [middle of 4 runs] |  | 
10 | C=C(C)[C@@H]1CC[C@]2(C)[C@H](CC=C3[C@@H]4CC(C)(C)CC[C@]4(C(=O)OC)CC[C@]32C)[C@@]1(C)CC/C(N)=N/O | 1.88 | 5.11 | 2.02 µM | 4.97 µM | 1.95 | 4.28 µM | 1.52 µM | 3.11 | 1.78 µM | 3.86 µM |  |  | 1.89 | 4.03 µM | 2.47 | > 100 | 2.47 µM | 7.62 µM | 1.77 | 3.23
11 | COc1cccc2c1C(=O)c1c(O)c3c(c(O)c1C2=O)C[C@@](O)(C(=O)COC(=O)c1cccnc1)C[C@@H]3OC1CC(N)C(O)C(C)O1 (some centres undefined) | 0.199 | 1.53 | 0.175 µM | 0.984 µM | 0.223 | 14.1 µM | 0.103 µM | 0.268 | 0.17 µM | 1.06 µM |  |  | 0.0269 | 0.215 µM | 0.15 | 2.75 | 0.146 µM | 1.64 µM | 0.118 | 0.252

Reference: PubChem BioAssay (NCI)
